These are literature values, as cited in patent publication EP4398053A1, “CONTROL METHOD FOR […] OF A DYNAMIC SYSTEM AND […]” (Universidade de Aveiro, priority 2023, dated 2024).

The conditions of the data set: drug elimination within the body; drug-specific model parameter.

Each structure is given as a SMILES string.

As to `O=P1(N(CCCl)CCCl)NCCCO1` (stereo not shown) [Cyclophosphamide], the “drug elimination rate λ” value was 4.16 day⁻¹.
